According to US20240190849A1, “AMINOPYRIMIDINE COMPOUNDS AND METHODS OF THEIR USE” (TYRA BIOSCIENCES, INC., priority 2021, published 2024):

Assays:
FGFR1 = biological target: T1, FGFR1 (Homo sapiens, UniProt P11362); assay: Kinase binding assay (kinase-tagged T7 phage, affinity beads, qPCR readout), FGFR1; conditions: FGFR binding data
T1 construct: made in house; host or cells: E. coli derived from BL21, infected with T7 phage
Summary of the method: (§1)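 Dissociation constants were measured by bead-capture competition at 0.9% DMSO, room temperature, 1 hour. qPCR of eluted kinase supplied the signal.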

FGFR2 = biological target: T2, FGFR2 (Homo sapiens, UniProt P21802); assay: Kinase binding assay (kinase-tagged T7 phage, affinity beads, qPCR readout), FGFR2; conditions: FGFR binding data
T2 construct: made in house; host or cells: E. coli derived from BL21, infected with T7 phage
Summary of the method: as §1

FGFR3 = biological target: T3, FGFR3 (Homo sapiens, UniProt P22607); assay: Kinase binding assay (kinase-tagged T7 phage, affinity beads, qPCR readout), FGFR3; conditions: FGFR binding data
T3 construct: made in house; host or cells: E. coli derived from BL21, infected with T7 phage
Summary of the method: as §1

FGFR3 (V555M) = biological target: T4, FGFR3 (V555M) (Homo sapiens, UniProt P22607, V555M); assay: Kinase binding assay (kinase-tagged T7 phage, affinity beads, qPCR readout), FGFR3 (V555M); conditions: FGFR binding data
T4 construct: made in house; host or cells: E. coli derived from BL21, infected with T7 phage
Summary of the method: as §1

[1] = tested on: RT112/84 (Bladder Cancer), FGFR3-TACC3 fusion; assay: Cancer cell viability assay (Cell Titer-Glo), RT112/84; assay type: cell-based; conditions: Homo sapiens, RT112/84 cells, 72 hours
Summary of the method: (§2)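 Cells seeded at 10,000/well in RPMI1640 with 10% FBS, then exposed 72 h at 37° C. to a 9-point 10-fold dilution series from 30 μM, in triplicate. Viability read as ATP luminescence (CellTiter-Glo 2.0) as percent of DMSO control; IC50 from 4-parameter sigmoidal fit.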

[2] = tested on: UM-UC-14 (Bladder Cancer), FGFR3(S249C); assay: Cancer cell viability assay (Cell Titer-Glo), UM-UC-14; assay type: cell-based; conditions: UMUC14, UM-UC-14 cells, 72 hours
Summary of the method: as §2

[3] = tested on: SNU-16 (Gastric Carcinoma), FGFR2 amplification; assay: Cancer cell viability assay (Cell Titer-Glo), SNU-16; assay type: cell-based; conditions: Homo sapiens, SNU-16 cells, 72 hours, read-out: SNU16 FGFR2 (IC50 nM)
Summary of the method: as §2

[4] = tested on: KG-1 (Acute Myeloid Leukemia), FGFR1OP2-FGFR1 fusion; assay: Cancer cell viability assay (Cell Titer-Glo), KG-1; assay type: cell-based; conditions: Homo sapiens, KG-1 cells, 72 hours
Description: RT112/84, UM-UC-14, SNU-16 and KG-1 Cancer Cell Line Cell Viability Assays
To detect the change of intracellular ATP by Cell Titer-Glo@ and to evaluate the inhibitory effect of the compounds on cancer cell lines by determining the in vitro IC50 value of the compounds.
Cell Titer-Glo@ 2.0 Luminescent cell viability assay reagent was purchased from Promega (Madison, WI). RT112/84, SNU-16, and KG-1 cell lines were purchased from American Type Culture Collection (Manassas, VA). UM-UC-14 cell line was purchased from Sigma (St. Louis, MO). RT112/84, UM-UC-14, SNU-16, and KG-1 cells were cultured in RPMI1640 media supplemented with 10% fetal bovine serum. Cultures were maintained at 37° C. in a humidified atmosphere of 5% CO2 and 95% air.
Cell Viability Assay Procedure: Cells were plated in 96-well clear bottom/white plates (Corning #3903) at 10,000 cells/well in 100 μl of media, incubated overnight. The next day, test compound DMSO stock solutions were made at 10 mM and 2 μM final concentration. Compounds were then added to cells in a 9-dose, […] dilution series starting at 30 μM with an HP 300e Digital Dispenser (each dose was applied in triplicate). DMSO was backfilled to each well up to 301 nL total volume of test compound+DMSO, and a total of 301 nL DMSO was added to a control/no test compound well in triplicate. The cells in cell culture plates were incubated with the compounds at 37° C. and 5% CO2 for 72 hours. Then 50 μl of Cell Titer Glo 2.0 reagent was added to each well of the cell culture plates. The contents were covered from light and mixed on an orbital shaker at room temperature for 10 min. Luminescence was recorded by a Synergy H1 Microplate Reader (Biotek, Winooski, VT). Cells were assessed as a percentage of DMSO only treated control cells. Curves were plotted and IC50 values were calculated using the GraphPad Prism 8 program based on a sigmoidal dose-response equation (4 parameter).

T2 sequence (P21802 22-821): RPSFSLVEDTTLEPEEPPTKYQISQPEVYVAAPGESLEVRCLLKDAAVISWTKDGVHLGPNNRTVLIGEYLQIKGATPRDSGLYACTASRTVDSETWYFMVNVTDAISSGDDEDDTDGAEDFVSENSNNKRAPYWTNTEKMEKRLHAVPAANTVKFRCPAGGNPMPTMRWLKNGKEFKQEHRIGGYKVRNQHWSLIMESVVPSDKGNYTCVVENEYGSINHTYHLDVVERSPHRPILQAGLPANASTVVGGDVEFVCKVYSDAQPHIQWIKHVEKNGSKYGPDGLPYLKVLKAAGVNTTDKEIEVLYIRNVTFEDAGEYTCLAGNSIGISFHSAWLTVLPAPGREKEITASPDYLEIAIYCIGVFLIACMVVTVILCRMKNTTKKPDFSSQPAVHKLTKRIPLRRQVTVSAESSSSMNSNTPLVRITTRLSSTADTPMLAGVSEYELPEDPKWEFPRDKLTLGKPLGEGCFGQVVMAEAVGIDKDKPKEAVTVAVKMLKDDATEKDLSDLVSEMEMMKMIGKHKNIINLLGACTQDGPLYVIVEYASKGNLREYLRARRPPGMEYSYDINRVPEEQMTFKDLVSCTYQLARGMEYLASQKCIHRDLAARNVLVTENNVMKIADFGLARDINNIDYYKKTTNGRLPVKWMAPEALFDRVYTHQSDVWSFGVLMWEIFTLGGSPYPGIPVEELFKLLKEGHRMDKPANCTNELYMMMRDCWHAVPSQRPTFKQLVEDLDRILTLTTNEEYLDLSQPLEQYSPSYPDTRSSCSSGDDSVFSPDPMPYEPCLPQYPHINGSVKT
T4 sequence (P22607 23-806 V555M): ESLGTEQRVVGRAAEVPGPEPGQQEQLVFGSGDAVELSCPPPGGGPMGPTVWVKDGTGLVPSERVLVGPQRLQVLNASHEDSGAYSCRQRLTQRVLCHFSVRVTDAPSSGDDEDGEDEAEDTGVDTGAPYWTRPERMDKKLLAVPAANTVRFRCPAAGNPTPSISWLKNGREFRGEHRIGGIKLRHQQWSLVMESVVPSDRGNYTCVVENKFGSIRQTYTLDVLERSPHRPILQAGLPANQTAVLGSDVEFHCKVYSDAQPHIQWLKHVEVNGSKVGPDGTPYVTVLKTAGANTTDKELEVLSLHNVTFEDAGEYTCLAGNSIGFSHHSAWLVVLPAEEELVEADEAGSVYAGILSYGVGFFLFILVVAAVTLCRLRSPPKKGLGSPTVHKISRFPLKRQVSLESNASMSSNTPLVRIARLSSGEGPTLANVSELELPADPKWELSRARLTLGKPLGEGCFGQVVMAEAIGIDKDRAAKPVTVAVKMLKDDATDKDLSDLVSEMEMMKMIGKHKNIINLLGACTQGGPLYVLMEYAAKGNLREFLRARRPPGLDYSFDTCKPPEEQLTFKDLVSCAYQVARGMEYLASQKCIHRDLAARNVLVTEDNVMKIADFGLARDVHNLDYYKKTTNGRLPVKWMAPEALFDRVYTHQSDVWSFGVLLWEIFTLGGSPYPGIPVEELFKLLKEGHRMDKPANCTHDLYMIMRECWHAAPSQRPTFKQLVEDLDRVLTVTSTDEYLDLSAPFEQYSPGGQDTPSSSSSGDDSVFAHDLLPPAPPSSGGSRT
T1 sequence (P11362 22-822): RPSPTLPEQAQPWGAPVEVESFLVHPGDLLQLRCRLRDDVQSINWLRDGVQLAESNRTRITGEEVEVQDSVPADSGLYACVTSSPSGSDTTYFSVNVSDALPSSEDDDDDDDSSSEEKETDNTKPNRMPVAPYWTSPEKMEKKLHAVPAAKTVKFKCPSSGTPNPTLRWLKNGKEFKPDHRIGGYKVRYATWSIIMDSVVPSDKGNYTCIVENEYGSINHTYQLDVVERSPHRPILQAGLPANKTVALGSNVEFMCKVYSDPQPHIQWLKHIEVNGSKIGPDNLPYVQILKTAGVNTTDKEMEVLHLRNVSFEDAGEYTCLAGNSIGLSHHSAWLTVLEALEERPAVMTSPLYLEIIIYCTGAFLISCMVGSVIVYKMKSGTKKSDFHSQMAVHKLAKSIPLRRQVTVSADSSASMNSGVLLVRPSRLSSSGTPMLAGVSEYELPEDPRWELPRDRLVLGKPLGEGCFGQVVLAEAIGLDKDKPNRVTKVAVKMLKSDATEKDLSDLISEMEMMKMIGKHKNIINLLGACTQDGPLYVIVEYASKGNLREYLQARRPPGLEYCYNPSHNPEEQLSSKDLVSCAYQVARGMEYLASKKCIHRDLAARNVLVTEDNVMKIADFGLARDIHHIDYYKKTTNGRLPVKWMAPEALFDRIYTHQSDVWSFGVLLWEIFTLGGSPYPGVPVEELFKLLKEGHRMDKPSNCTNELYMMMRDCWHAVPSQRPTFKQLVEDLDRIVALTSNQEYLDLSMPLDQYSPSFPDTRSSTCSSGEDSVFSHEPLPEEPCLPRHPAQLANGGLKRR
T3 sequence (P22607 23-806): as the sequence (P22607 23-806 V555M) above, with M533V counted along it

C=CC(=O)Nc1ccc2c(c1)c(C)cn2-c1nc(Nc2cc(C)nn2C)ncc1C [Example 64, N-[1-[2-[(2,5-dimethylpyrazol-3-yl)amino]-5-methyl-pyrimidin-4-yl]-3-methyl-indol-5-yl]prop-2-enamide]
0.1 to 100 nM: Kd (FGFR1) | Kd (FGFR2) | Kd (FGFR3) | Kd (FGFR3 (V555M)) | IC50 [1] | IC50 [2] | IC50 [3] | IC50 [4]

C=CC(=O)Nc1ccc2c(-c3ccnc(Nc4cnn(CCO)c4)n3)cn(C)c2c1 [Example 106, N-[3-[2-[[1-(2-hydroxyethyl)pyrazol-4-yl]amino]pyrimidin-4-yl]-1-methyl-indol-6-yl]prop-2-enamide]
0.1 to 100 nM: Kd (FGFR1) | Kd (FGFR2) | Kd (FGFR3) | Kd (FGFR3 (V555M)) | IC50 [1] | IC50 [2] | IC50 [3] | IC50 [4]
